Results as given in patent US4521428A, “Anorexigenic trifluoromethylphenyltetrahydropyridines and pharmaceutical compositions containing them” (Sanofi, priority 1982, dated 1985).
Read-outs that look alike come from different tables or passages of the source.

Columns and labels:
[1] = tested on: cerebral serotonin; assay: cerebral rates of serotonin compared to controls, according to Curzon and Green; format: in vivo; details: for cerebral rates of serotonin, % compared to controls: two hours after administration
Description: Table II hereinbelow summarizes the percent cerebral rates of serotonin, compared to the controls, after intraperitoneal or oral administration of four representative compounds of the present invention. The determination of the cerebral rates, according to Curzon and Green (Br. J. Pharmacol. 1970, 39, 653) was made two hours after the administration. Fenfluramine was used as reference compound.

[2] = tested on: food intake (female rats); assay: anorectic activity by the food intake method in the rat; format: in vivo; details: food taken in first hour, read-out: ID50 (dose inhibiting by 50% the food intake)
Method: The anorectic activity was assessed by the food intake method in the rat. Female rats weighing 200 g are used, which were trained for 10 days to eat during a period of 4 hours and selected on the eighth day. At the end of the tenth day, the randomised animals were divided into a "control group" treated with the vehicle alone, and into several "treated groups". The treatment was effected by intraperitoneal or by oral route 30 minutes or 1 hour, respectively, before the presentation of the food and the amount of food taken in the course of the first hour was then measured.
the anorectic activity, expressed as oral or intraperitoneal dose inhibiting by 50% the food intake (ID50, B);

[3] = acute toxicity in the rat (LD50) by the oral or intraperitoneal route; details: in vivo; for selectivity ratio: read-out: A/B (LD50/ID50, therapeutic index)
Description: the acute toxicity, expressed as LD50 in the rat by the oral or intraperitoneal route (A);
the ratio between the acute toxicity and the anorectic activity which expresses the therapeutic index related to the acute toxicity (A/B).

[4] = tested on: cerebral serotonin; details: doses very close to the anorectic dose; Arch. Intern. Pharmacodyn. Ther. 1967; cited from earlier work
[5] = tested on: central nervous system; details: in vivo; cited from earlier work
[6] = tested on: serotonin release; details: central neurons; cited from earlier work
[7] = tested on: cerebral noradrenaline; details: cited from earlier work
[8] = ip, 1 h, i.p., 30 minutes before food

Cl.FC(F)(F)c1cccc(C2=CCN(CCc3ccccn3)CC2)c1 [Example 1, 1-[2-(2-pyridyl)ethyl]-4-(3-trifluoromethylphenyl)-1,2,3,6-tetrahydropyridine hydrochloride]
cerebral rates of serotonin, % compared to controls ([1]; i.p., 1.625 mg/kg): 93 ± 7%
cerebral rates of serotonin, % compared to controls ([1]; i.p., 3.25 mg/kg): 85 ± 1%
cerebral rates of serotonin, % compared to controls ([1]; i.p., 7.5 mg/kg, °° P < 0.01): 98 ± 10%
ED50 [2, 8]: 1.99 mg/kg
ED50 ([2]; po, os, 1 hour before food): 3.49 mg/kg
LD50 ([3]; ip): 108 mg/kg
selectivity ratio ([3]; ip): 54.2
selectivity ratio ([3]; os): 56
LD50 ([3]; po, os): 195 mg/kg

CCNC(C)Cc1cccc(C(F)(F)F)c1 (stereo not drawn) [Fenfluramine, reference compound]
cerebral rates of serotonin (background) [4]: significant reduction in the cerebral rates of serotonin
cerebral serotonin depletion/reduction ([1]; in vivo): significant reduction of the cerebral serotonin
ED50 [2, 8]: 1.58 mg/kg
ED50 ([2]; po, os, 1 hour before food): 2.51 mg/kg
LD50 ([3]; ip): 102 mg/kg
LD50 ([3]; po, os): 231 mg/kg
anorectic activity (background) [5]: excellent anorectic activity
sedative/stimulant action (background) [5]: some sedative action
serotonin release (background) [6]: release of the endogenous serotonin of the central neurons

Cl.FC(F)(F)c1cccc(C2=CCN(CCc3ccc4ccccc4c3)CC2)c1 [Example 7, 1-[2-(2-naphthyl)ethyl]-4-(3-trifluoromethylphenyl)-1,2,3,6-tetrahydropyridine hydrochloride]
ED50 ([2]; po, os, 1 hour before food): 10.4 mg/kg
selectivity ratio ([3]; os): > 76.6
LD50 ([3]; po, os): > 800 mg/kg

Cc1cccc(CCN2CC=C(c3cccc(C(F)(F)F)c3)CC2)n1.Cl [Example 4, 1-[2-(6-methyl-2-pyridyl)ethyl]-4-(3-trifluoromethylphenyl)-1,2,3,6-tetrahydropyridine hydrochloride]
cerebral rates of serotonin, % compared to controls ([1]; os, 5.69 mg/kg): 119 ± 6%
ED50 ([2]; po, os, 1 hour before food): 5.69 mg/kg
selectivity ratio ([3]; os): 35.6
LD50 ([3]; po, os): 202 mg/kg

Cl.FC(F)(F)c1cccc(C2=CCN(CCc3cccnc3)CC2)c1 [Example 2, 1-[2-(3-pyridyl)ethyl]-4-(3-trifluoromethylphenyl)-1,2,3,6-tetrahydropyridine hydrochloride]
cerebral rates of serotonin, % compared to controls ([1]; os, 2.0 mg/kg): 113 ± 5%
ED50 ([2]; po, os, 1 hour before food): 1.77 mg/kg
selectivity ratio ([3]; os): 128
LD50 ([3]; po, os): 227 mg/kg

CC(N)Cc1ccccc1 (stereo not drawn) [amphetamine]
noradrenaline release mediating anorexia (background) [7]: seems to be mediated by the release of cerebral noradrenaline

Cl.FC(F)(F)c1cccc(C2=CCN(CCc3cccc4ccccc34)CC2)c1 [Example 6, 1-[2-(1-naphthyl)ethyl]-4-(3-trifluoromethylphenyl)-1,2,3,6-tetrahydropyridine hydrochloride]
ED50 ([2]; po, os, 1 hour before food): 4.75 mg/kg
selectivity ratio ([3]; os): > 126
LD50 ([3]; po, os): > 600 mg/kg

Cl.FC(F)(F)c1cccc(C2=CCN(CCc3ccncc3)CC2)c1 [Example 3, 1-[2-(4-pyridyl)ethyl]-4-(3-trifluoromethylphenyl)-1,2,3,6-tetrahydropyridine hydrochloride]
ED50 ([2]; po, os, 1 hour before food): 5.82 mg/kg
selectivity ratio ([3]; os): 49.6
LD50 ([3]; po, os): 289 mg/kg

Cl.[O-][n+]1ccc(CCN2CC=C(c3cccc(C(F)(F)F)c3)CC2)cc1 [Example 5, 4-[2-[4-(3-trifluoromethylphenyl)-1,2,3,6-tetrahydropyrid-1-yl]ethyl]pyridine 1-oxide hydrochloride]
ED50 ([2]; po, os, 1 hour before food): 1.71 mg/kg
selectivity ratio ([3]; os): ~176
LD50 ([3]; po, os): ~300 mg/kg
